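48-hour exposure; five concentrations; linearly interpolated endpoints. GI50 marks 50% less growth. TGI is the concentration that stops growth completely.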
Legend:
Assay in all cases: NCI tumour cell line growth inhibition, 48 h; in the data active means GI50 below about 0.43 µM; inactive means the rest
[1] = system: KM12 colon
[2] = system: MALME-3M melanoma
[3] = system: SF-268 CNS
[4] = system: A498 renal
[5] = system: MOLT-4 leukemia
[6] = system: UO-31 renal
[7] = system: MDA-MB-435
[8] = system: CAKI-1 renal
[9] = system: SNB-75 CNS
[10] = system: BT-549 breast
[11] = system: SW-620 colon
[12] = system: NCI-H23 lung
[13] = system: RPMI-8226 leukemia
[14] = system: OVCAR-8 ovarian
[15] = system: HL-60(TB) leukemia
[16] = system: HS 578T breast
[17] = system: LOX IMVI melanoma
[18] = system: K-562 leukemia
[19] = system: OVCAR-5 ovarian
[20] = system: MCF7 breast
[21] = system: HOP-62 NSCLC
[22] = system: TK-10 renal
[23] = system: 786-0 renal
[24] = system: COLO 205 colon
[25] = system: A549 NSCLC
[26] = system: HCT-15 colon
[27] = system: NCI/ADR-RES ovarian
[28] = system: SF-539 CNS
[29] = system: PC-3 prostate
[30] = system: M14 melanoma
[31] = system: SK-MEL-5 melanoma
[32] = system: OVCAR-4 ovarian
[33] = system: SNB-19 CNS
[34] = system: ACHN renal
[35] = system: U251 CNS
[36] = system: UACC-257 melanoma
[37] = system: IGROV1 ovarian
[38] = system: CCRF-CEM leukemia
[39] = system: NCI-H522 lung
[40] = system: HOP-92 NSCLC
[41] = system: SK-OV-3 ovarian
[42] = system: UACC-62 melanoma
[43] = system: HCT-116 colon
[44] = system: MDA-MB-231 breast
[45] = system: SN12C renal
[46] = system: SK-MEL-2 melanoma
[47] = system: HCC-2998 colon
[48] = system: DU-145 prostate
[49] = system: SF-295 CNS
[50] = system: EKVX NSCLC
[51] = system: OVCAR-3 ovarian
[52] = system: SK-MEL-28 melanoma
[53] = system: RXF 393 renal
[54] = system: HT29 colon
[55] = system: T-47D breast
[56] = system: NCI-H226 lung
[57] = system: NCI-H460 lung

Cc1oncc1C(=O)Nc1ccc(C(F)(F)F)cc1
46 µM: TGI [40]
inactive: GI50 [1] 35.8 µM | GI50 [2] 20.5 µM | GI50 [3] 23 µM | GI50 [4] 9.97 µM | GI50 [5] 36.4 µM | GI50 [6] 12.6 µM | GI50 [7] 46.9 µM | GI50 [8] 33.3 µM | GI50 [9] 23.5 µM | GI50 [10] 22.1 µM | GI50 [11] 92.5 µM | GI50 [12] 42.4 µM | GI50 [13] 17.5 µM | GI50 [14] 17.6 µM | GI50 [15] 24.5 µM | GI50 [16] 54.5 µM | GI50 [17] 19.1 µM | GI50 [18] 12.1 µM | GI50 [19] > 100 µM | GI50 [20] > 100 µM | GI50 [21] > 100 µM | GI50 [22] > 100 µM | GI50 [23] 54.5 µM | GI50 [24] > 100 µM | GI50 [25] 39.8 µM | GI50 [26] 14.1 µM | GI50 [27] 45.1 µM | GI50 [28] 60.3 µM | GI50 [29] 13.9 µM | GI50 [30] 68.2 µM | GI50 [31] 29.3 µM | GI50 [32] 25 µM | GI50 [33] > 100 µM | GI50 [34] 41.7 µM | GI50 [35] 14.7 µM | GI50 [36] 26.9 µM | GI50 [37] 26.7 µM | GI50 [38] 17.8 µM | GI50 [39] 33.6 µM | GI50 [40] 6.17 µM | GI50 [41] > 100 µM | GI50 [42] 36 µM | GI50 [43] 15.6 µM | GI50 [44] 25.9 µM | GI50 [45] > 100 µM | GI50 [46] > 100 µM | GI50 [47] 64.5 µM | GI50 [48] 56.1 µM | GI50 [49] 19.5 µM | GI50 [50] 18.7 µM | GI50 [51] 20.8 µM | GI50 [52] 56.7 µM | GI50 [53] 23.9 µM | GI50 [54] 66.3 µM | GI50 [55] 94 µM | GI50 [56] 35.1 µM | GI50 [57] 24.8 µM
> 100 µM: TGI [1] | TGI [2] | TGI [3] | TGI [5] | TGI [6] | TGI [7] | TGI [8] | TGI [9] | TGI [10] | TGI [11] | TGI [12] | TGI [13] | TGI [14] | TGI [15] | TGI [16] | TGI [17] | TGI [18] | TGI [19] | TGI [20] | TGI [21] | TGI [22] | TGI [23] | TGI [24] | TGI [25] | TGI [26] | TGI [27] | TGI [28] | TGI [29] | TGI [30] | TGI [31] | TGI [32] | TGI [33] | TGI [34] | TGI [35] | TGI [36] | TGI [37] | TGI [38] | TGI [39] | TGI [41] | TGI [42] | TGI [43] | TGI [44] | TGI [45] | TGI [46] | TGI [47] | TGI [48] | TGI [49] | TGI [50] | TGI [52] | TGI [53] | TGI [54] | TGI [55] | TGI [56] | TGI [57]
58.7 µM: TGI [4]
78.7 µM: TGI [51]

Source: PubChem BioAssay (NCI)
